Laboratory results as given in patent publication US10538498B2, “1,3,4-oxadiazole sulfonamide derivative compounds as histone deacetylase 6 inhibitor, and the pharmaceutical composition comprising the same” (Chong Kun Dang Pharmaceutical Corp., priority 2015, dated 2020).

Target: T1, human recombinant HDAC6 (Homo sapiens, UniProt Q9UBN7)
T1 construct: purchased Calbiochem 382180
T1 sequence (Q9UBN7 1-1215): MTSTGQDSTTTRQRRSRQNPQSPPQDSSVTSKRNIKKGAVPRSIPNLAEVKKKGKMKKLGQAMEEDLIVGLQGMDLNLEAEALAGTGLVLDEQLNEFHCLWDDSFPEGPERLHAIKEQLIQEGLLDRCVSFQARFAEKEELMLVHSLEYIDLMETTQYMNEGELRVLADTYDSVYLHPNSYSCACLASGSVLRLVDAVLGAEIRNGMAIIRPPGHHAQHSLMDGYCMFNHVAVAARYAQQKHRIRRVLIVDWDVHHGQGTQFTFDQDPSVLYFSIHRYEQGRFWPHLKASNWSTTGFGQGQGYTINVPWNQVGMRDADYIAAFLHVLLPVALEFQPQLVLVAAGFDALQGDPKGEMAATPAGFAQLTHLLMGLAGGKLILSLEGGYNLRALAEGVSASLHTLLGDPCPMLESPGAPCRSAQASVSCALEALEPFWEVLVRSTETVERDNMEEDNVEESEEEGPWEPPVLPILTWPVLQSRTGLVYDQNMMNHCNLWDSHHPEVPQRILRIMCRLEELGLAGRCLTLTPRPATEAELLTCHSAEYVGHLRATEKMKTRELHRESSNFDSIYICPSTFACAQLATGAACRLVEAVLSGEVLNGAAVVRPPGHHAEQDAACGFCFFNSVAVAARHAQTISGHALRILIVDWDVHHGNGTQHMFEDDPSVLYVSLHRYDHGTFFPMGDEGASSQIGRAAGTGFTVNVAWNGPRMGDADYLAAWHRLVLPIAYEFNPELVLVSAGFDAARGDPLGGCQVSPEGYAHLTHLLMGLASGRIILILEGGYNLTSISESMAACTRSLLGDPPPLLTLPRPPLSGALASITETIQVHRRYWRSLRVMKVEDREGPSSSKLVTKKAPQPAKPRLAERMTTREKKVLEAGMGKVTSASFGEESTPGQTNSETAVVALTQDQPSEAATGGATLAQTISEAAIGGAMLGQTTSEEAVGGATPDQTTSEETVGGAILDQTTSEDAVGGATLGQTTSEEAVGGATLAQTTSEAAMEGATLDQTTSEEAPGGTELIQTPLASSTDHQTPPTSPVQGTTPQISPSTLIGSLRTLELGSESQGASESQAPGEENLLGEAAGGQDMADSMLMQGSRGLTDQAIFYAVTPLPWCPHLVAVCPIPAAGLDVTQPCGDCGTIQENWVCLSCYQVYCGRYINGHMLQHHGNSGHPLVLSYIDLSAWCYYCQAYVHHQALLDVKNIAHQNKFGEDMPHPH
Test: HDAC6 enzyme activity inhibition assay (HDAC Fluorimetric Drug Discovery Kit)
Type: biochemical
Details: for HDAC6 selectivity (fold): HDAC1 vs HDAC6; for IC50: same protocol as the HDAC1 enzyme activity test
How it was run: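 Fluorescence (Ex 360, Em 460) after 30 min developer step; IC50 from dose-response. Reaction: 0.3 μg recombinant enzyme, 10 μM Fluor de Lys-SIRT1 substrate, 5-fold compound dilutions, 60 min at 30° C. Same protocol for both isoforms.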

| SMILES | HDAC6 selectivity (fold) | IC50 [nM] |
| --- | --- | --- |
| CCS(=O)(=O)N(Cc1ccc(-c2nnc(C(F)F)o2)cc1F)c1cccc2c1cnn2C [Compound 11520, N-(4-(5-(difluoromethyl)-1,3,4-oxadiazol-2-yl)-2-fluorobenzyl)-N-(1-methyl-1H-indazol-4-yl)ethanesulfonamide] | 3125 | 32 |
| CCS(=O)(=O)N(Cc1ccc(-c2nnc(C(F)F)o2)cc1F)c1cccc2cnn(C)c12 [Compound 11522, N-(4-(5-(difluoromethyl)-1,3,4-oxadiazol-2-yl)-2-fluorobenzyl)-N-(1-methyl-1H-indazol-7-yl)ethanesulfonamide] | 4167 | 24 |
| CCS(=O)(=O)N(Cc1ccc(-c2nnc(C(F)F)o2)cn1)c1cccc2c1cnn2C [Compound 11539, N-((5-(5-(difluoromethyl)-1,3,4-oxadiazol-2-yl)pyridin-2-yl)methyl)-N-(1-methyl-1H-indazol-4-yl)ethanesulfonamide] | 4348 | 23 |
| CS(=O)(=O)N1CCN(CCS(=O)(=O)N(Cc2ccc(-c3nnc(C(F)F)o3)cc2F)c2ccc(F)c(Cl)c2)CC1 [Compound 11554, N-(3-chloro-4-fluorophenyl)-N-(4-(5-(difluoromethyl)-1,3,4-oxadiazol-2-yl)-2-fluorobenzyl)-2-(4-(methylsulfonyl)piperazin-1-yl)ethane-1-sulfonamide] | 4348 | 23 |
| CS(=O)(=O)N(Cc1ccc(-c2nnc(C(F)F)o2)nn1)c1ccccc1 [Compound 11566, N-((6-(5-(difluoromethyl)-1,3,4-oxadiazol-2-yl)pyridazin-3-yl)methyl)-N-phenylmethanesulfonamide] | 1124 | 89 |
| CS(=O)(=O)N1CC(N2CCN(CCS(=O)(=O)N(Cc3ccc(-c4nnc(C(F)F)o4)cc3F)c3ccc(F)c(Cl)c3)CC2)C1 [Compound 11582, N-(3-chloro-4-fluorophenyl)-N-(4-(5-(difluoromethyl)-1,3,4-oxadiazol-2-yl)-2-fluorobenzyl)-2-(4-(1-(methylsulfonyl)azetidin-3-yl)piperazin-1-yl)ethane-1-sulfonamide] | 4348 | 23 |
| O=S(=O)(CCN1CCN(C2COC2)CC1)N(Cc1ccc(-c2nnc(C(F)F)o2)cc1F)c1ccc(F)c(Cl)c1 [Compound 11583, N-(3-chloro-4-fluorophenyl)-N-(4-(5-(difluoromethyl)-1,3,4-oxadiazol-2-yl)-2-fluorobenzyl)-2-(4-(oxetan-3-yl)piperazin-1-yl)ethane-1-sulfonamide] | 4348 | 23 |
| O=S(=O)(CCCN1CCOCC1)N(Cc1ccc(-c2nnc(C(F)F)o2)cc1F)c1ccccc1 [Compound 11588, N-(4-(5-(difluoromethyl)-1,3,4-oxadiazol-2-yl)-2-fluorobenzyl)-3-morpholino-N-phenylpropane-1-sulfonamide] | 2273 | 44 |
| CN1CCN(CCCS(=O)(=O)N(Cc2ccc(-c3nnc(C(F)F)o3)cc2F)c2ccccc2)CC1 [Compound 11589, N-(4-(5-(difluoromethyl)-1,3,4-oxadiazol-2-yl)-2-fluorobenzyl)-3-(4-methylpiperazin-1-yl)-N-phenylpropane-1-sulfonamide] | 2326 | 43 |
| CS(=O)(=O)N(Cc1cnc(-c2nnc(C(F)(F)F)o2)nc1)c1ccccc1 [Compound 11606, N-phenyl-N-((2-(5-(trifluoromethyl)-1,3,4-oxadiazol-2-yl)pyrimidin-5-yl)methyl)methanesulfonamide] | 66 | 1520 |
| O=S(=O)(C1CCN(C2COC2)CC1)N(Cc1ccc(-c2nnc(C(F)F)o2)cc1F)c1ccccc1 [Compound 11625, N-(4-(5-(difluoromethyl)-1,3,4-oxadiazol-2-yl)-2-fluorobenzyl)-1-(oxetan-3-yl)-N-phenylpiperidine-4-sulfonamide] | 719 | 139 |
| CS(=O)(=O)N(Cc1ccc(-c2nnc(C(F)F)o2)cc1)c1cccnc1 [Compound 11628, N-(4-(5-(difluoromethyl)-1,3,4-oxadiazol-2-yl)benzyl)-N-(pyridin-3-yl)methanesulfonamide] | 2083 | 48 |
| O=S(=O)(CCN1CCCCC1)N(Cc1ccc(-c2nnc(C(F)F)o2)cc1)c1ccccc1 [Compound 11629, N-(4-(5-(difluoromethyl)-1,3,4-oxadiazol-2-yl)benzyl)-N-phenyl-2-(piperidin-1-yl)ethane-1-sulfonamide] | 1041 | 96 |

These reach a lower IC50. Values come first.

| HDAC6 selectivity (fold) | IC50 [nM] | SMILES |
| --- | --- | --- |
| 5556 | 18 | CC(=O)N1CC(N2CCC(S(=O)(=O)N(Cc3ccc(-c4nnc(C(F)F)o4)cc3F)c3ccc(F)c(Cl)c3)CC2)C1 [Compound 11447, 1-(1-acetylazetidin-3-yl)-N-(3-chloro-4-fluorophenyl)-N-(4-(5-(difluoromethyl)-1,3,4-oxadiazol-2-yl)-2-fluorobenzyl)piperidine-4-sulfonamide] |
| 4762 | 21 | CS(=O)(=O)N1CC(N2CCC(S(=O)(=O)N(Cc3ccc(-c4nnc(C(F)F)o4)cc3F)c3ccc(F)c(Cl)c3)CC2)C1 [Compound 11448, N-(3-chloro-4-fluorophenyl)-N-(4-(5-(difluoromethyl)-1,3,4-oxadiazol-2-yl)-2-fluorobenzyl)-1-(1-(methylsulfonyl)azetidin-3-yl)piperidine-4-sulfonamide] |
| 10000 | 10 | CCS(=O)(=O)N(Cc1ccc(-c2nnc(C(F)F)o2)cn1)c1ccc2cnn(C)c2c1 [Compound 11540, N-((5-(5-(difluoromethyl)-1,3,4-oxadiazol-2-yl)pyridin-2-yl)methyl)-N-(1-methyl-1H-indazol-6-yl)ethanesulfonamide] |
| 6250 | 16 | CCS(=O)(=O)N(Cc1ccc(-c2nnc(C(F)F)o2)cn1)c1cccc2cnn(C)c12 [Compound 11541, N-((5-(5-(difluoromethyl)-1,3,4-oxadiazol-2-yl)pyridin-2-yl)methyl)-N-(1-methyl-1H-indazol-7-yl)ethanesulfonamide] |
| 7143 | 14 | CN1CCN(CCS(=O)(=O)N(Cc2ccc(-c3nnc(C(F)F)o3)cc2F)c2ccc(F)c(Cl)c2)CC1 [Compound 11552, N-(3-chloro-4-fluorophenyl)-N-(4-(5-(difluoromethyl)-1,3,4-oxadiazol-2-yl)-2-fluorobenzyl)-2-(4-methylpiperazin-1-yl)ethane-1-sulfonamide] |
| 5882 | 17 | CC(=O)N1CCN(CCS(=O)(=O)N(Cc2ccc(-c3nnc(C(F)F)o3)cc2F)c2ccc(F)c(Cl)c2)CC1 [Compound 11553, 2-(4-acetylpiperazin-1-yl)-N-(3-chloro-4-fluorophenyl)-N-(4-(5-(difluoromethyl)-1,3,4-oxadiazol-2-yl)-2-fluorobenzyl)ethane-1-sulfonamide] |
| 4762 | 21 | CS(=O)(=O)N(Cc1ncc(-c2nnc(C(F)F)o2)cn1)c1ccccc1 [Compound 11564, N-((5-(5-(difluoromethyl)-1,3,4-oxadiazol-2-yl)pyrimidin-2-yl)methyl)-N-phenylmethanesulfonamide] |
